Results published in patent US20120122860A1, “SOLID FORMS OF SULFONAMIDES AND AMINO ACIDS” (Plexxikon, Inc., priority 2009, published 2012).

Experiments:
[1] = biological target: Kdr (Homo sapiens, UniProt P35968); assay: Kinase activity assay, Kdr
[2] = biological target: B-Raf (Homo sapiens, UniProt P15056); assay: Kinase activity assay, B-Raf; assay type: biochemical; conditions: read-out: activity toward kinase B-Raf, IC50
[3] = biological target: Src (Homo sapiens, UniProt P12931); assay: Kinase activity assay, Src
[4] = biological target: B-Raf V600E (Homo sapiens, UniProt P15056, V600E); assay: Kinase activity assay, B-Raf V600E; assay type: biochemical; conditions: read-out: activity toward kinase B-Raf V600E, IC50
[5] = biological target: C-Raf (Homo sapiens, UniProt P04049); assay: Kinase activity assay, C-Raf
[6] = biological target: Kit (Homo sapiens, UniProt P10721); assay: Kinase activity assay, Kit

Measured: IC50

Chain of Src (P12931 whole entry): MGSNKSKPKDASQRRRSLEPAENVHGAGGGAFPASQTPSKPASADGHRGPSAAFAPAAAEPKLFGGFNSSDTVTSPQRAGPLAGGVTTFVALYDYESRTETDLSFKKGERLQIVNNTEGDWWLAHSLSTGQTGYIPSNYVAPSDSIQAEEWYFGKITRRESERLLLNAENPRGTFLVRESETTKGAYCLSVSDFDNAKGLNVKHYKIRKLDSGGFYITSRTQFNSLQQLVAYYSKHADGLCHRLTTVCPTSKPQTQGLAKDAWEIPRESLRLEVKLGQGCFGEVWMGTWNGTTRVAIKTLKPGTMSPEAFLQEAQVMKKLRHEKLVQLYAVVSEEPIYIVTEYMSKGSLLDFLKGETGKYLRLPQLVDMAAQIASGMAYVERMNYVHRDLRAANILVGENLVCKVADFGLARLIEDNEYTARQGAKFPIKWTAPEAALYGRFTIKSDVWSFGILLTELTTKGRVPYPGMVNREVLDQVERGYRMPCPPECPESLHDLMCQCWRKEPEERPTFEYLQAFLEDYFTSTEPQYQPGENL
Chain of Kdr (P35968 20-1356): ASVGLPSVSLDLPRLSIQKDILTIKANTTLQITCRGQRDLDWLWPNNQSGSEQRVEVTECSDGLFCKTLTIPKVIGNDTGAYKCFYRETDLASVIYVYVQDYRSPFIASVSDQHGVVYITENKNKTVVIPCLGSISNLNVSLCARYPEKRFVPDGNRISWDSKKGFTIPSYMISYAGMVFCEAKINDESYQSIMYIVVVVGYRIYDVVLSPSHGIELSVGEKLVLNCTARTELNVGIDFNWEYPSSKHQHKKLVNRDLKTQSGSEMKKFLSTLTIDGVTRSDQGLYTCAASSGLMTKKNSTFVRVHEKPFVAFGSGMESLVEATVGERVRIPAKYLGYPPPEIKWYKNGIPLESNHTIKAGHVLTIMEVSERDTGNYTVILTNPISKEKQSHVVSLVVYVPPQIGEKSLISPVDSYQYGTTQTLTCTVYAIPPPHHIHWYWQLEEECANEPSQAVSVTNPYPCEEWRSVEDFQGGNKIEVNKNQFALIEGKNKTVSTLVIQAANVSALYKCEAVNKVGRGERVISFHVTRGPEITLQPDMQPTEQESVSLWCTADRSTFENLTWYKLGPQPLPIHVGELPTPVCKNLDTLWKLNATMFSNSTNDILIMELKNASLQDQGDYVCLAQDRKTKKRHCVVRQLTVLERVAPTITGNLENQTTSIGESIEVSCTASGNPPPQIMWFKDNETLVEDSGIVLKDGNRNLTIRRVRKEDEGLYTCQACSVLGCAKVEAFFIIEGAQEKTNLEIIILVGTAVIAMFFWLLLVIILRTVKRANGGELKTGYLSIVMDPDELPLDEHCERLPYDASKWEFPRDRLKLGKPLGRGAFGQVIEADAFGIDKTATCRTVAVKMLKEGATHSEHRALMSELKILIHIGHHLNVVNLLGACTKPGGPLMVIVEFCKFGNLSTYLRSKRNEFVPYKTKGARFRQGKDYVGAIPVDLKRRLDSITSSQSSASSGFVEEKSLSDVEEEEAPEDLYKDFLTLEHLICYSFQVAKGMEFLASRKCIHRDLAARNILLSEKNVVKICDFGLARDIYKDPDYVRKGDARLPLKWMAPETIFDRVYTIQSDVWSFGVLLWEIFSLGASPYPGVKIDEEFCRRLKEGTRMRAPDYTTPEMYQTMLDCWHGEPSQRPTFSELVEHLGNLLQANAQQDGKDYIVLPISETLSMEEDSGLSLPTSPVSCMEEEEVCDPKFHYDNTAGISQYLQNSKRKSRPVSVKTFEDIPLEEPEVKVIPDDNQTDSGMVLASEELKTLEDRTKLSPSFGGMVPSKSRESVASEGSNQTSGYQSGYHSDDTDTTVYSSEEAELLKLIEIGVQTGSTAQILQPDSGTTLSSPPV
Chain of B-Raf V600E (P15056 whole entry V600E): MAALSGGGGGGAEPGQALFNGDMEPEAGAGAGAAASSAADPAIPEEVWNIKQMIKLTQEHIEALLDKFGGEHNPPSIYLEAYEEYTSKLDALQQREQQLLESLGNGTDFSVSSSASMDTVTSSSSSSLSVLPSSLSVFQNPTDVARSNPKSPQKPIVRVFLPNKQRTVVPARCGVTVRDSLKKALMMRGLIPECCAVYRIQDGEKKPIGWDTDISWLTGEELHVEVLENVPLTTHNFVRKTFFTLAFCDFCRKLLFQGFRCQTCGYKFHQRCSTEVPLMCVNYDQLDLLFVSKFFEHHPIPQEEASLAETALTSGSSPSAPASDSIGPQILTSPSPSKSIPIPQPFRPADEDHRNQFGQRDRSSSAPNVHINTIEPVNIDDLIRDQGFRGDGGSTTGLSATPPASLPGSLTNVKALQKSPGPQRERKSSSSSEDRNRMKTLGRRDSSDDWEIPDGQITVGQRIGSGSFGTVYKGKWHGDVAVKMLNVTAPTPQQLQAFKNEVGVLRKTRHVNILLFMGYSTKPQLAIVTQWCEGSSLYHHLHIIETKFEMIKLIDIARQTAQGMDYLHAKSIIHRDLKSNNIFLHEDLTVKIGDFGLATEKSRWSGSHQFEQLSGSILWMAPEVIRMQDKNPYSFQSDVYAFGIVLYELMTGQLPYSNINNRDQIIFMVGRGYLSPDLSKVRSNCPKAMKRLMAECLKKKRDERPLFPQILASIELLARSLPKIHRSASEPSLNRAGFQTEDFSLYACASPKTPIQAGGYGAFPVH
Chain of B-Raf (P15056 whole entry): as the sequence (P15056 whole entry V600E) above, with E600V counted along it
Chain of C-Raf (P04049 whole entry): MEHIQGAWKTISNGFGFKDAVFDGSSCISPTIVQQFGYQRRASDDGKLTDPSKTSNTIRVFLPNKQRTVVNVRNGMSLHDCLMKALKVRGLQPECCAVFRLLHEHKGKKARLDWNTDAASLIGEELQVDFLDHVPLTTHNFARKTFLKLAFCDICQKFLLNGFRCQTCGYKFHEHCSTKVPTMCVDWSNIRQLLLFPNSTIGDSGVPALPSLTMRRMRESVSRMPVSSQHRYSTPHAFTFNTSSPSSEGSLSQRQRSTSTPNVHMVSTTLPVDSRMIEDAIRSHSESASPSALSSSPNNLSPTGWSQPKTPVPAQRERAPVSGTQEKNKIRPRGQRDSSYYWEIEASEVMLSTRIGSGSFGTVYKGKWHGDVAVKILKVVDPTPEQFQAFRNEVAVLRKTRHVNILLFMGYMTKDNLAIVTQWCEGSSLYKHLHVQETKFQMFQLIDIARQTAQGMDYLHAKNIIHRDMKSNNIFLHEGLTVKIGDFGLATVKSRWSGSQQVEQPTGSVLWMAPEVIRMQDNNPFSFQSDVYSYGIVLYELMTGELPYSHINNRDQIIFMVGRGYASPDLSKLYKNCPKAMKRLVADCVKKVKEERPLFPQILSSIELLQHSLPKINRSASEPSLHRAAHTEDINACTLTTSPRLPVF
Chain of Kit (P10721 26-976): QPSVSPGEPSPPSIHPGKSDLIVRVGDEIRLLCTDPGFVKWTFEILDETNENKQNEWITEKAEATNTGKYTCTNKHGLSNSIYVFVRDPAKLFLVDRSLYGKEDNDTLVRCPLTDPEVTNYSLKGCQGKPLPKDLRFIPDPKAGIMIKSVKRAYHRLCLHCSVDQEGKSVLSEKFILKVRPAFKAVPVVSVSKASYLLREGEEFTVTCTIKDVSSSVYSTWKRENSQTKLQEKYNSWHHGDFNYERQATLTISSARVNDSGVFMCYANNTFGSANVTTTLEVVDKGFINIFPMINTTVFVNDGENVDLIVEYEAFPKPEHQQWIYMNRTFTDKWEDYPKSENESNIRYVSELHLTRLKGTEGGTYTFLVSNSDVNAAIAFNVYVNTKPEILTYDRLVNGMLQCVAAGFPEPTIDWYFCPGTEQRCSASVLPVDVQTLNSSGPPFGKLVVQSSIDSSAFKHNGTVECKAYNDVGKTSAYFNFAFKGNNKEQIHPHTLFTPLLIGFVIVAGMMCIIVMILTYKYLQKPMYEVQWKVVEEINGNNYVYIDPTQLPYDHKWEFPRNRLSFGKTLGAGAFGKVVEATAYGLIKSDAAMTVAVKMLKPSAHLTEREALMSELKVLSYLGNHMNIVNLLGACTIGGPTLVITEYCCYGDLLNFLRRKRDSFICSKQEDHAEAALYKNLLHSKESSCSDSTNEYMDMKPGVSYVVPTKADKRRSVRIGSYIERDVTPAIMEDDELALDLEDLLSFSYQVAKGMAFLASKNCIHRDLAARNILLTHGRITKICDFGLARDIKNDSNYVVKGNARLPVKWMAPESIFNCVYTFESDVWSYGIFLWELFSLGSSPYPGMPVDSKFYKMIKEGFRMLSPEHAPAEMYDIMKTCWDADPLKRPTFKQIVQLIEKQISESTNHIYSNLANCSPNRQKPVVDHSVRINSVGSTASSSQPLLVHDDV

Cc1cnc2[nH]cc(C(=O)c3cccc(NS(=O)(=O)c4ccc(C(F)(F)F)cc4)c3F)c2c1 [P-2059, N-[2-Fluoro-3-(5-methyl-1H-pyrrolo[2,3-b]pyridine-3-carbonyl)-phenyl]-4-trifluoromethyl-benzenesulfonamide]
not listed: [6]
≤ 10 µM: all other assays above

COc1ccnc2[nH]cc(C(=O)c3c(F)ccc(NS(=O)(=O)CC(F)(F)F)c3F)c12 [P-2340, 2,2,2-Trifluoro-ethanesulfonic acid [2,4-difluoro-3-(4-methoxy-1H-pyrrolo[2,3-b]pyridine-3-carbonyl)-phenyl]-amide]
≤ 10 µM: [2] | [3] | [4] | [5]

CCCS(=O)(=O)Nc1ccc(F)c(C(=O)c2c[nH]c3ncc(-c4ccc(Cl)nc4)cc23)c1F [P-2154, Propane-1-sulfonic acid {3-[5-(6-chloro-pyridin-3-yl)-1H-pyrrolo[2,3-b]pyridine-3-carbonyl]-2,4-difluoro-phenyl}-amide]
not listed: [6]
≤ 10 µM: all other assays above

O=C(c1cccc(NS(=O)(=O)c2ccc(C(F)(F)F)cc2)c1F)c1c[nH]c2ncc(Cl)cc12 [P-2058, N-[3-(5-Chloro-1H-pyrrolo[2,3-b]pyridine-3-carbonyl)-2-fluoro-phenyl]-4-trifluoromethyl-benzenesulfonamide]
not listed: [3]
≤ 10 µM: all other assays above

CCCS(=O)(=O)Nc1ccc(F)c(C(=O)c2c[nH]c3ncc(-c4ccc(S(=O)(=O)N5CCCC5)cc4)cc23)c1F [P-2227, Propane-1-sulfonic acid (2,4-difluoro-3-{5-[4-(pyrrolidine-1-sulfonyl)-phenyl]-1H-pyrrolo[2,3-b]pyridine-3-carbonyl}-phenyl)-amide]
≤ 10 µM: [1] | [2] | [4] | [5]

COc1ccnc2[nH]cc(C(=O)c3c(F)ccc(NS(=O)(=O)c4cccnc4)c3F)c12 [P-2073, Pyridine-3-sulfonic acid [2,4-difluoro-3-(4-methoxy-1H-pyrrolo[2,3-b]pyridine-3-carbonyl)-phenyl]-amide]
≤ 10 µM: [2] | [3] | [4] | [5]

CCCC(C)S(=O)(=O)Nc1ccc(F)c(C(=O)c2c[nH]c3ncc(Cl)cc23)c1F (stereo not shown) [P-2311, Pentane-2-sulfonic acid [3-(5-chloro-1H-pyrrolo[2,3-b]pyridine-3-carbonyl)-2,4-difluoro-phenyl]-amide]
not listed: [2]
≤ 10 µM: all other assays above

COc1ccnc2[nH]cc(C(=O)c3c(F)ccc(NS(=O)(=O)C(C)C)c3F)c12 [P-2280, Propane-2-sulfonic acid [2,4-difluoro-3-(4-methoxy-1H-pyrrolo[2,3-b]pyridine-3-carbonyl)-phenyl]-amide]
not listed: [6]
≤ 10 µM: all other assays above

CCCS(=O)(=O)Nc1ccc(F)c(C(=O)c2c[nH]c3ncc(-c4c(-c5ccccc5)noc4C)cc23)c1F [P-2191, Propane-1-sulfonic acid {2,4-difluoro-3-[5-(5-methyl-3-phenyl-isoxazol-4-yl)-1H-pyrrolo[2,3-b]pyridine-3-carbonyl]-phenyl}-amide]
≤ 10 µM: [1] | [2] | [3] | [4]

CN(C)S(=O)(=O)Nc1cccc(C(=O)c2c[nH]c3ncc(C#N)cc23)c1F [P-2419, N,N-dimethylamino-sulfonic acid [3-(5-cyano-1H-pyrrolo[2,3-b]pyridine-3-carbonyl)-2-fluoro-phenyl]-amide]
≤ 10 µM: [4] | [6]

O=C(c1cccc(NS(=O)(=O)c2ccc(C(F)(F)F)cc2)c1)c1c[nH]c2ncc(Cl)cc12 [P-2126, N-[3-(5-Chloro-1H-pyrrolo[2,3-b]pyridine-3-carbonyl)-phenyl]-4-trifluoromethyl-benzenesulfonamide]
≤ 10 µM: [1] | [2] | [6]

CCCS(=O)(=O)Nc1ccc(F)c(C(=O)c2c[nH]c3ncc(-c4ccc(Cl)c(C(F)(F)F)c4)cc23)c1F [P-2171, Propane-1-sulfonic acid {3-[5-(4-chloro-3-trifluoromethyl-phenyl)-1H-pyrrolo[2,3-b]pyridine-3-carbonyl]-2,4-difluoro-phenyl}-amide]
≤ 10 µM: [1] | [2] | [3] | [4]

CCCS(=O)(=O)Nc1ccc(F)c(C(=O)c2c[nH]c3ncc(-c4cc(C)nn4C)cc23)c1F [P-2195, Propane-1-sulfonic acid {3-[5-(2,5-dimethyl-2H-pyrazol-3-yl)-1H-pyrrolo[2,3-b]pyridine-3-carbonyl]-2,4-difluoro-phenyl}-amide]
not listed: [5]
≤ 10 µM: all other assays above

N#Cc1cnc2[nH]cc(C(=O)c3c(F)ccc(NS(=O)(=O)Cc4cccnc4)c3F)c2c1 [P-2094, N-[3-(5-Cyano-1H-pyrrolo[2,3-b]pyridine-3-carbonyl)-2,4-difluoro-phenyl]-C-pyridin-3-yl-methanesulfonamide]
≤ 10 µM: [1] | [4] | [6]

CCCS(=O)(=O)Nc1ccc(F)c(C(=O)c2c[nH]c3ncc(/C=C/C(=O)OC)cc23)c1F [P-2225, (E)-3-{3-[2,6-Difluoro-3-(propane-1-sulfonylamino)-benzoyl]-1H-pyrrolo[2,3-b]pyridin-5-yl}-acrylic acid methyl ester]
not listed: [6]
≤ 10 µM: all other assays above

CCCS(=O)(=O)Nc1ccc(F)c(C(=O)c2c[nH]c3ncc(C(=O)N(C)C)cc23)c1F [P-2237, 3-[2,6-Difluoro-3-(propane-1-sulfonylamino)-benzoyl]-1H-pyrrolo[2,3-b]pyridine-5-carboxylic acid dimethyl amide]
≤ 10 µM: [1] | [2] | [3]

COc1ncc(-c2cnc3[nH]cc(C(=O)c4cccc(NS(=O)(=O)N5CCCC5)c4F)c3c2)cn1 [P-2422, Pyrrolidine-1-sulfonic acid {2-fluoro-3-[5-(2-methoxy-pyrimidin-5-yl)-1H-pyrrolo[2,3-b]pyridine-3-carbonyl]-phenyl}-amide]
≤ 10 µM: [1] | [2] | [4] | [5]

CCCS(=O)(=O)Nc1ccc(F)c(C(=O)c2c[nH]c3ncc(-c4c(C)noc4C)cc23)c1F [P-2156, Propane-1-sulfonic acid {3-[5-(3,5-dimethyl-isoxazol-4-yl)-1H-pyrrolo[2,3-b]pyridine-3-carbonyl]-2,4-difluoro-phenyl}-amide]
≤ 10 µM: [1] | [3] | [4]

O=C(c1c(F)ccc(NS(=O)(=O)c2ccc(C(F)(F)F)nc2)c1F)c1c[nH]c2ncc(Cl)cc12 [P-2481, 6-Trifluoromethyl-pyridine-3-sulfonic acid [3-(5-chloro-1H-pyrrolo[2,3-b]pyridine-3-carbonyl)-2,4-difluoro-phenyl]-amide]
≤ 10 µM: [1] | [2] | [3] | [5]

O=C(c1cc(NS(=O)(=O)c2ccc(OC(F)(F)F)cc2)ccc1F)c1c[nH]c2ncc(Cl)cc12 [P-2109, N-[3-(5-Chloro-1H-pyrrolo[2,3-b]pyridine-3-carbonyl)-4-fluoro-phenyl]-4-trifluoromethoxy-benzenesulfonamide]
≤ 10 µM: [1] | [2] | [6]

N#Cc1cnc2[nH]cc(C(=O)c3cccc(NS(=O)(=O)c4ccc(F)cc4F)c3F)c2c1 [P-2055, N-[3-(5-Cyano-1H-pyrrolo[2,3-b]pyridine-3-carbonyl)-2-fluoro-phenyl]-2,4-difluoro-benzenesulfonamide]
≤ 10 µM: all assays above

CCCS(=O)(=O)Nc1cccc(C(=O)c2c[nH]c3ncc(C)cc23)c1F [P-2403, Propane-1-sulfonic acid [2-fluoro-3-(5-methyl-1H-pyrrolo[2,3-b]pyridine-3-carbonyl)-phenyl]-amide]
≤ 10 µM: [1] | [2] | [4] | [5]

CCCS(=O)(=O)Nc1cccc(C(=O)c2c[nH]c3nccc(C#N)c23)c1F [P-2409, Propane-1-sulfonic acid [3-(4-cyano-1H-pyrrolo[2,3-b]pyridine-3-carbonyl)-2-fluoro-phenyl]-amide]
≤ 10 µM: [1] | [2] | [4] | [5]

COc1ccnc2[nH]cc(C(=O)c3c(F)ccc(NS(C)(=O)=O)c3F)c12 [P-2293, N-[2,4-Difluoro-3-(4-methoxy-1H-pyrrolo[2,3-b]pyridine-3-carbonyl)-phenyl]-methanesulfonamide]
≤ 10 µM: [1] | [4] | [5] | [6]

O=C(c1c(F)ccc(NS(=O)(=O)CCC(F)(F)F)c1F)c1c[nH]c2ncc(-c3ccc(Cl)cc3)cc12 [P-2325, 3,3,3-Trifluoro-propane-1-sulfonic acid {3-[5-(4-chloro-phenyl)-1H-pyrrolo[2,3-b]pyridine-3-carbonyl]-2,4-difluoro-phenyl}-amide]
≤ 10 µM: [3] | [6]
